From patent publication US20240425607A1, “IL-18BP ANTAGONIST ANTIBODIES AND THEIR USE IN MONOTHERAPY AND COMBINATION THERAPY IN THE TREATMENT OF CANCER” (Compugen Ltd., priority 2023, published 2024)

How the values were obtained:
[1] = tested on: tumor infiltrating lymphocytes (TILs) co-cultured with MEL624 cells; assay: rhIL-18 titration in TIL:MEL624 co-culture; assay type: cell-based, human; settings: 24 hr
Procedure: Human MEL624 cells were thawed and grown in DMEM with 10% FBS, 1% Glutamax, 1% Penicillin-Streptomycin Solution and 1% HEPES buffer. The cells were then seeded at 75 k cells/well in a 96 well plate in the assay medium (IMDM with 10% human serum, 1% Glutamax, 1% MEM eagle, 1% Sodium Pyruvate and 1% Penicillin-Streptomycin Solution) and incubated 1 hour in 37° C., 5% CO2 incubator before co-culture with human tumor infiltrating lymphocytes that were previously expanded using known melanoma antigens (TILs). Human TILs were thawed in full TIL media and 75 k cells/well were co-cultured with the MEL624 cells to create an effector: target ratio of 1:1. The co-cultured cells were then treated with rhIL-18 (1.23-300 ng/ml). Cells and all added solutions were prepared in full assay medium to a final volume of 200 μl/well. Plates were incubated for 24 hours in 37° C., 5% CO2 incubator, after which the supernatant was collected for cytokine secretion evaluation. All tests were done in triplicates.

[2] = tested on: MC38ova tumor-bearing mice; assay: Peripheral effects in MC38ova tumor-bearing mice: anti-mIL18BP vs engineered mIL-18; assay type: in vivo; settings: single dose, varying concentrations of IL-15
Procedure: Nine days pre-inoculum, vials of MC38ova^dim cells were thawed into RPMI media containing 10% FBS, 1% Glutamax, 1% Sodium pyruvate, 1% HEPES, 1% NEAA, 0.01% 2-mercaptoethanol, 1% Penicillin-Streptomycin. Following centrifugation at 300×g for 8 min, cell pellet was resuspended, counted and seeded in a T175 flask. On days −7, −5 and −2, the cells were detached and re-seeded at 6-8*10^6 cells/T175 flask. On the day of inoculum, the cells were detached, centrifuged at 300×g for 10 min, filtered through […] cell strainer and resuspended in RPMI.
Experiments were performed in C57Bl/6 (female, 6-8 wk, Envigo). Mice were anesthetized with 10% Ketamine and 10% Xylazine mixture injected intraperitoneal. Next, mice were inoculated with MC38ova cells (1.2×10^6) subcutaneously to the right flank in 50 μl/mice.
At tumor volume of −120 mm^3 (day 9), mice were randomly assigned into treatment groups. Mice were treated with Synagis mouse IgG1, k isotype control 15 mg/kg (IP), anti-mIL18 bp 837 mIgG1 15 mg/kg (IP), PBS (SC), or engineered IL-18 (SC) 0.32 mg/kg. Treatments were injected twice a week for a total of 6 treatments. […] Mice were weighed every week. Mice were bled before the 4th treatment, 4 hours after the 4th treatment, and 24 hours after the 4th treatment. Serum was analyzed for presence of IFNg, TNFα, MCP1, IL6 by Cytometric Bead Array (CBA) Mouse Inflammation Kit (BD Cat. No. 552364). […]

| Substance | Concentration at saturation of IFNγ secretion [1] | Concentration that activates TILs (IFNγ secretion) [1] | Spleens of mice treated with IL-15 vs controls [2] |
| --- | --- | --- | --- |
| rhIL-18: recombinant human IL-18 (R&D systems) | ~100 ng/mL | > 1 ng/mL | – |
| IL-15: recombinant IL15 given to mice as comparator cytokine [reference compound] | – | – | larger than controls |
